Source: PMC12284294 (iScience, 2025)
Read-outs that look alike come from different tables or passages of the source. Ends that are not written are not given here.

T1: FPR1 (Homo sapiens, UniProt P21462)
T1 construct: expressed in transfected cells; host or cells: HEK293T
T1 sequence (P21462 1-350): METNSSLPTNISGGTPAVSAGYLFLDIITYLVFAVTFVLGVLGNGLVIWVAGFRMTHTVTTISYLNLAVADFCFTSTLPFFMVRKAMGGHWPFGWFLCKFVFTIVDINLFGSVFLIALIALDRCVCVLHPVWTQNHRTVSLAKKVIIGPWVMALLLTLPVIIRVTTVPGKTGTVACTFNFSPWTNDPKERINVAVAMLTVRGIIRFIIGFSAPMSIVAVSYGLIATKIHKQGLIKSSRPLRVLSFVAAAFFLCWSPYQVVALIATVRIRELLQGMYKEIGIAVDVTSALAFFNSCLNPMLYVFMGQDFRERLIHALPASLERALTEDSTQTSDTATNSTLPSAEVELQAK

T2: FPR2 (Homo sapiens, UniProt P25090)
T2 construct: expressed in transfected cells; host or cells: HEK293T
T2 sequence (P25090 1-351): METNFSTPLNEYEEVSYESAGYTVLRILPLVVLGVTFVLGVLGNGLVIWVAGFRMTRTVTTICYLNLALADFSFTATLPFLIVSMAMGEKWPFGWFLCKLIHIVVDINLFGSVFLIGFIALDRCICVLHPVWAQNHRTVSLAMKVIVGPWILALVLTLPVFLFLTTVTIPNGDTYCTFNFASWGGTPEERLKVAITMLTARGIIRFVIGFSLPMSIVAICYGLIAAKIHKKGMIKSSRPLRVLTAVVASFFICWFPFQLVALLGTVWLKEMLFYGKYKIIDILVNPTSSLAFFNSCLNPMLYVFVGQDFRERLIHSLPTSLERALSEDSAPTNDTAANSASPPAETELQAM

T3: FPR3 (Homo sapiens, UniProt P25089)
T3 construct: expressed in transfected cells; host or cells: HEK293T
T3 sequence (P25089 1-353): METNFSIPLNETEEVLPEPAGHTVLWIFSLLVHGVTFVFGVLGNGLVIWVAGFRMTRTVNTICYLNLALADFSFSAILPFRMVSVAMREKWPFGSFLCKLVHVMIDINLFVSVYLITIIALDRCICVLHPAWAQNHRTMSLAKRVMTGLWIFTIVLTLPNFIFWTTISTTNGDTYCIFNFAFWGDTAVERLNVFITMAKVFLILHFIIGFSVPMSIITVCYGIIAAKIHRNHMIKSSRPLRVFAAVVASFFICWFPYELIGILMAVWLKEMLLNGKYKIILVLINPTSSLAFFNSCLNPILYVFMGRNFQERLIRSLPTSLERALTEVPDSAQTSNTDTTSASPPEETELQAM

T4: Formyl peptide receptor 3 (human, UniProt P25089 1-353)
T4 chain: T3 sequence (P25089 1-353)

T5: Formyl peptide receptor 2 (human, UniProt P25090 1-351)
T5 chain: T2 sequence (P25090 1-351)

T6: Formyl peptide receptor 1 (human, UniProt P21462 1-350)
T6 chain: T1 sequence (P21462 1-350)

T7: Formyl peptide receptor 2 (human, UniProt P25090 1-351)
T7 sequence (looked up): T2 sequence (P25090 1-351)

T8: Formyl peptide receptor 1 (human, UniProt P21462 1-350)
T8 sequence (looked up): T1 sequence (P21462 1-350)

T9: Formyl peptide receptor 3 (human, UniProt P25089 1-353)
T9 sequence (looked up): T3 sequence (P25089 1-353)


Legend:
[1] = biological target: T1, FPR1; test: biochemical; type: binding
[2] = biological target: T1, FPR1; test: cell-based; type: binding
[3] = biological target: T2, FPR2; test: cell-based; type: binding
[4] = biological target: T3, FPR3; test: cell-based; type: binding
[5] = system: FPR1, FPR2, FPR3, PMN; type: cell-based, human
[6] = biological target: T1, FPR1; type: cell-based
[7] = system: human polymorphonuclear granulocytes (PMN; neutrophils); type: cell-based; details: SARS-CoV-2 omicron B.1.1.529 spike pool peptides, 10 µM, PMN, n=6
[8] = biological target: T4, Formyl peptide receptor 3
[9] = biological target: T5, Formyl peptide receptor 2
[10] = biological target: T6, Formyl peptide receptor 1
[11] = biological target: T7, Formyl peptide receptor 2; details: one partner purified
[12] = biological target: T8, Formyl peptide receptor 1; details: one partner purified
[13] = biological target: T9, Formyl peptide receptor 3; details: one partner purified
[14] = biological target: T4, Formyl peptide receptor 3
[15] = biological target: T5, Formyl peptide receptor 2
[16] = biological target: T6, Formyl peptide receptor 1
[17] = […], it matches an identified peptide or IgG epitope of COVID-19 patients

Row | Molecule | non-activators of FPR1 and PMNs: FPR1 [6] | non-activators of FPR1 and PMNs: PMNs [7] | also measured
1 | CC[C@H](C)[C@H](NC(=O)[C@H](Cc1ccc(O)cc1)NC(=O)[C@H](CCC(N)=O)NC(=O)[C@@H](N)CCC(=O)O)C(=O)N[C@@H](CCCCN)C(=O)N[C@@H](Cc1c[nH]c2ccccc12)C(=O)N1CCC[C@H]1C(=O)N[C@@H](Cc1c[nH]c2ccccc12)C(=O)N[C@@H](Cc1ccc(O)cc1)C(=O)N[C@H](C(=O)N[C@@H](Cc1c[nH]c2ccccc12)C(=O)N[C@@H](CC(C)C)C(=O)O)C(C)C [CV3] |  |  | IC50 [1]: 3800 nM
2 | CC[C@H](C)[C@H](NC(=O)[C@H](Cc1ccc(O)cc1)NC(=O)[C@H](Cc1c[nH]c2ccccc12)NC(=O)[C@@H]1CCCN1C(=O)[C@H](Cc1c[nH]c2ccccc12)NC(=O)[C@H](CCCCN)NC(=O)[C@@H](NC(=O)[C@H](Cc1ccc(O)cc1)NC(=O)[C@H](CCC(N)=O)NC(=O)[C@@H](N)CCC(=O)O)[C@@H](C)CC)C(=O)N[C@@H](Cc1c[nH]c2ccccc12)C(=O)N[C@@H](CC(C)C)C(=O)O [CV7] |  |  | Kd [2]: 14 nM; Kd [3]: 489 nM; IC50 ([1]; read-out: IC50 in the BRET assay): 5100 nM; Kd [4]: 347 nM
3 | DGYFKIYSKHTPIIV | non-activators of FPR1 and PMNs | non-activators of FPR1 and PMNs | Match with activator (region): Receptor [5]: FPR2 + FPR3
4 | DYSVLYNLAPFFTFKCYGV |  |  | Match with activator (region): Receptor [5, 17]: PMN
5 | DYSVLYNLAPFFTFKCYGVSPTK |  |  | Match with activator (region): Receptor [5, 17]: FPR3
6 | EPEDLPQGFSALEPL |  |  | Match with activator (region): Receptor [5, 17]: PMN; significant PMN activators (group of the spike peptide pool screening) [7]: significant PMN activators
7 | EQYIKWPWYIWL |  |  | Match with activator (region): Receptor [5]: All FPRs + PMN
8 | ITNLCPFDEVFNATR | non-activators of FPR1 and PMNs | non-activators of FPR1 and PMNs | Match with activator (region): Receptor [5, 17]: FPR3
9 | KVSGNYNYLYRLFRK | non-activators of FPR1 and PMNs | non-activators of FPR1 and PMNs | Match with activator (region): Receptor [5, 17]: FPR3
10 | LLLQYGSFCTQLKRALTGI |  |  | Match with activator (region): Receptor [5]: FPR3
11 | NFNFNGLKGTGVLTE | non-activators of FPR1 and PMNs | non-activators of FPR1 and PMNs | Match with activator (region): Receptor [5, 17]: FPR3
12 | PFLDHKNNKSWMESE | non-activators of FPR1 and PMNs | non-activators of FPR1 and PMNs | 
13 | PGQTGNIADYNYKLP | non-activators of FPR1 and PMNs | non-activators of FPR1 and PMNs | 
14 | PGTNTSNQVAVLYQG | non-activators of FPR1 and PMNs | non-activators of FPR1 and PMNs | 
15 | PPIKYFGGFNFSQIL | non-activators of FPR1 and PMNs | non-activators of FPR1 and PMNs | 
16 | QTRAGCLIGAEYVNN | non-activators of FPR1 and PMNs | non-activators of FPR1 and PMNs | 
17 | QVKQIYKTPPIKYFG |  |  | Match with activator (region): Receptor [5]: PMN+ FPR2; Match with activator (region): Receptor [5, 17]: PMN + FPR2; significant PMN activators (group of the spike peptide pool screening) [7]: significant PMN activators
18 | QVKQIYKTPPIKYFGGFNFSQILPDPS |  |  | Match with activator (region): Receptor [5]: FPR3
19 | RFPNITNLCPFDEVF | non-activators of FPR1 and PMNs | non-activators of FPR1 and PMNs | 
20 | RQIAPGQTGNIADYN | non-activators of FPR1 and PMNs | non-activators of FPR1 and PMNs | 
21 | SFRPTYGVGHQPYRV | non-activators of FPR1 and PMNs | non-activators of FPR1 and PMNs | 

Row | Molecule | non-activators of FPR1 and PMNs: FPR1 [6] | non-activators of FPR1 and PMNs: PMNs [7] | also measured
22 | SHRRARSVASQSIIA | non-activators of FPR1 and PMNs | non-activators of FPR1 and PMNs | 
23 | SKFGAISSVLNDIFS | non-activators of FPR1 and PMNs | non-activators of FPR1 and PMNs | 
24 | STASALGKLQDVVNH | non-activators of FPR1 and PMNs | non-activators of FPR1 and PMNs | 
25 | TQTKSHRRARSVASQ | non-activators of FPR1 and PMNs | non-activators of FPR1 and PMNs | 
26 | TSNQVAVLYQGVNCT | non-activators of FPR1 and PMNs | non-activators of FPR1 and PMNs | 
27 | TYGVGHQPYRVVVLS |  |  | significant FPR1 activators (group of the spike peptide pool screening) [6]: significant FPR1 activators; significant PMN activators (group of the spike peptide pool screening) [7]: significant PMN activators
28 | TYGVGHQPYRVVVLSFELL |  |  | Match with activator (region): Receptor [5, 17]: PMN + FPR1
29 | VAVLYQGVNCTEVPV | non-activators of FPR1 and PMNs | non-activators of FPR1 and PMNs | 
30 | VLNDIFSRLDKVEAE | non-activators of FPR1 and PMNs | non-activators of FPR1 and PMNs | 
31 | VLPFNDGVYFASIEK | non-activators of FPR1 and PMNs | non-activators of FPR1 and PMNs | 
32 | VLPFNDGVYFASIEKSNIIRGWIFGTT |  |  | Match with activator (region): Receptor [5]: FPR3
33 | VNHNAQALNTLVKQL | non-activators of FPR1 and PMNs | non-activators of FPR1 and PMNs | 
34 | VNHNAQALNTLVKQLSSKFGAISSVLNDIFS |  |  | Match with activator (region): Receptor [5]: FPR3
35 | WNSNKLDSKVSGNYN | non-activators of FPR1 and PMNs | non-activators of FPR1 and PMNs | 
36 | YFASIEKSNIIRGWI | non-activators of FPR1 and PMNs | non-activators of FPR1 and PMNs | 
37 | YFGGFNFSQILPDPS | non-activators of FPR1 and PMNs | non-activators of FPR1 and PMNs | 
38 | YGSFCTQLKRALTGI | non-activators of FPR1 and PMNs | non-activators of FPR1 and PMNs | 
39 | YQGVNCTEVPVAIHA | non-activators of FPR1 and PMNs | non-activators of FPR1 and PMNs | 
40 | MYVKWPWYVWLL (also: fluorescently labeled) [fluorescently labeled N-terminally truncated HCoV-HKU-1 MPR peptide CV2∗] |  |  | Kd [8]: > 1000 nM; Kd [9]: > 1000 nM; Kd [10]: 66.9 nM; fold lower binding affinity than the other MPR peptides [11]: ~10 fold; fold lower binding affinity than the other MPR peptides [12]: ~10 fold; fold lower binding affinity than the other MPR peptides [13]: ~10 fold
41 | ETYIKWPWWVWL (also: fluorescently labeled) [fluorescently labeled HCoV-229E MPR peptide CV1] |  |  | Kd [14]: 366 nM; Kd [15]: 287 nM; Kd [16]: 8.4 nM
42 | EQYIKWPWYVWL (also: fluorescently labeled) [fluorescently labeled SARS-CoV MPR peptide CV3] |  |  | Kd [14]: 756 nM; Kd [15]: 337 nM; Kd [16]: 7.3 nM
